The values below come from EP2298778A1, “IMIDAZOTHIAZOLE DERIVATIVE HAVING 4,7-DIAZASPIROÝ2.5¨OCTANE RING STRUCTURE” (Daiichi Sankyo Company, Limited, priority 2008, dated 2009).

The nature of this data set: Metabolic stability test (microsomal metabolism test). Type of data set: in vitro ADME. The note with it: pH 7.4; human-derived liver microsomes, test compound remaining after addition of NADP+ and incubation at 37°C for 30 minutes; read-out: metabolic stability of T/C%. As to the method: (Test Example 3 Metabolic stability test) 100 µL of 100 mM phosphate buffer solution (pH 7.4) containing 3 µM test compound was added to 100 µL of reaction solution containing 100 mM phosphate buffer solution (pH 7.4), 30 mM glucose 6-phosphate, 10 mM MgCl2·6H2O, 3 units/mL glucose 6-phosphate 1-dehydrogenase, and 0.3 to 1.5 mgP/mL human liver microsomes and the mixture was incubated at 37°C for 20 minutes. Then, 70 µL of 100 mM phosphate buffer solution (pH 7.4) containing 3 mM NADP^+ was added and the mixture was incubated at 37°C for 30 minutes to conduct a microsomal metabolism test. The metabolic stability was calculated according to the following formula: T/C (%) = ((concentration of test compound after addition of NADP)^+and incubation for30minutes)/((concentration of test compound before addition of NADP)^+) × 100. [formula] […]

For the compound `CC(C)C1=C(C(=O)N2[C@H](C)CC[C@H]2C(=O)N2CC3(CC3)N(C)C[C@@H]2C)SC2=N[C@@](C)(c3ccc(Cl)nc3)[C@@H](c3ccc(Cl)c(F)c3)N21` [Example 22, (6S)-7-[(5R)-1-{[(5R,6S)-5-(4-chloro-3-fluorophenyl)-6-(6-chloropyridin-3-yl)-3-isopropyl-6-methyl-5,6-dihydroimidazo[2,1-b][1,3]thiazol-2-yl]carbonyl}-5-methyl-L-prolyl]-4,6-dimethyl-4,7-diazaspiro[2.5]octane], the remaining at 0.5 h was ≥ 50%.
Turning to `CC(C)C1=C(C(=O)N2[C@H](C)CC[C@H]2C(=O)N2CC3(CC3)NC[C@H]2C)SC2=N[C@@](C)(c3ccc(Cl)nc3)[C@@H](c3ccc(Cl)c(F)c3)N21` [Example 23, (6R)-7-[(5R)-1-{ [(5R,6S)-5-(4-chloro-3-fluorophenyl)-6-(6-chloropyridin-3-yl)-3-isopropyl-6-methyl-5,6-dihydroimidazo[2,1-b][1,3]thiazol-2-yl]carbonyl}-5-methyl-L-prolyl]-6-methyl-4,7-diazaspiro[2.5]octane], the remaining at 0.5 h is ≥ 50%.
Turning to `CC(C)C1=C(C(=O)N2[C@H](C)CC[C@H]2C(=O)N2CC3(CC3)N(C)C[C@H]2C)SC2=N[C@@](C)(c3ccc(Cl)nc3)[C@@H](c3ccc(Cl)c(F)c3)N21` [Example 24, (6R)-7-[(5R)-1-{[(5R,6S)-5-(4-chloro-3-fluorophenyl)-6-(6-chloropyridin-3-yl)-3-isopropyl-6-methyl-5,6-dihydroimidazo[2,1-b][1,3]thiazol-2-yl]carbonyl}-5-methyl-L-prolyl]-4,6-dimethyl-4,7-diazaspiro[2.5]octane], the remaining at 0.5 h is ≥ 50%.
Regarding `CC(C)C1=C(C(=O)N2[C@H](C)CC[C@H]2C(=O)N2CCNC3(CC3)C2)SC2=N[C@@](C)(c3ccc(F)cc3)[C@@H](c3ccc(Cl)c(F)c3)N21` [Example 25, 7-[(5R)-1-{[(5R,6S)-5-(4-chloro-3-fluorophenyl)-6-(4-fluorophenyl)-3-isopropyl-6-methyl-5,6-dihydroimidazo[2,1-b][1,3]thiazol-2-yl]carbonyl}-5-methyl-L-prolyl]-4,7-diazaspiro[2.5]octane], the remaining at 0.5 h is ≥ 50%.
In the case of `CC(C)C1=C(C(=O)N2[C@H](C)CC[C@H]2C(=O)N2CCNC3(CC3)C2)SC2=N[C@@](C)(c3ccc(Cl)nc3)[C@@H](c3ccc(F)c(Cl)c3)N21` [Example 26, 7-[(5R)-1-{[(5R,6S)-5-(3-chloro-4-fluorophenyl)-6-(6-chloropyridin-3-yl)-3-isopropyl-6-methyl-5,6-dihydroimidazo[2,1-b][1,3]thiazol-2-yl]carbonyl}-5-methyl-L-prolyl]-4,7-diazaspiro[2.5]octane], the remaining at 0.5 h was ≥ 50%.
For the compound `CC(C)C1=C(C(=O)N2[C@H](C)CC[C@H]2C(=O)N2CCNC3(CC3)C2)SC2=N[C@@](C)(c3ccc(Cl)c(N)c3)[C@@H](c3ccc(Cl)c(F)c3)N21` [Example 27, 2-chloro-5-[(5R,6S)-5-(4-chloro-3-fluorophenyl)-2-{[(2S,5R)-2-(4,7-diazaspiro[2.5]oct-7-ylcarbonyl)-5-methylpyrrolidin-1-yl]carbonyl}-3-isopropyl-6-methyl-5,6-dihydroimidazo[2,1-b][1,3]thiazol-6-yl]aniline], the remaining at 0.5 h was ≥ 50%.
With `CC(C)C1=C(C(=O)N2[C@H](C)CC[C@H]2C(=O)N2CCNC3(CC3)C2)SC2=N[C@@](C)(c3ccc(C#N)cc3)[C@@H](c3ccc(Cl)cc3)N21` [Example 28, 4-[(5R,6S)-5-(4-chlorophenyl)-2-{[(2S,5R)-2-(4,7-diazaspiro[2.5]oct-7-ylcarbonyl)-5-methylpyrrolidin-1-yl]carbonyl}-3-isopropyl-6-methyl-5,6-dihydroimidazo[2,1-b][1,3]thiazol-6-yl]benzonitrile] the figure was ≥ 50%.
